According to patent US20250163387A1, “HUMAN PITUITARY NEUROENDOCRINE TUMOR ORGANOIDS AND METHODS OF MAKING AND USING THE SAME” (ARIZONA BOARD OF REGENTS OF THE UNIVERSITY OF ARIZONA, A …, priority 2022, published 2025):
pIC50: −log10 of the molar value. Numbered stars: 1 amine (or outer) side, 2 acyl side, 3 side chain; on linkers, the order of the positions; unused ones are H or OH. Square brackets hold non-standard residues; d marks the D form. Side chains are listed from the residue outwards. Peptide text beside a SMILES is read from it. * marks the point of attachment. Ethylenediamine = C(CN[*:2])N[*:1]; Hyp = O=C(O)[C@@H]1C[C@@H](O)CN1; Phg = N[C@H](C(=O)O)c1ccccc1; CO = O=C([*:1])[*:2]; Bn = c1ccc(C*)cc1

Legend:
[1] = system: transcriptional regulation of POMC by Gli1; experiment: Gene ChIP assay in hPITO cultures expressing USP8 and USP48 mutations; format: cell-based, human
SSTR5 [2] = experiment: Differential expression of SSTR5 in iPSC generated pituitary tumor organoids; format: cell-based, human; details: for effect on relacorilant stimulated SSTR5: iPSC organoids; for effect of pretreatment on Mifepristone-induced SSTR5 expression / differential expression of SSTR5: iPSC^ctrl organoids; for effect of pretreatment on Mifepristone-induced SSTR5 expression: GANT 5 uM, Keto 10 uM; for differential expression of SSTR5: drug alone (Mife 500 nM, GANT 5 uM, Keto 10 uM, Dexa 100 nM)
SSTR2 = experiment: Differential expression of SSTR2 in iPSC generated pituitary tumor organoids; format: cell-based, human; details: for effect on relacorilant stimulated SSTR2: iPSC organoids; for effect of pretreatment on Mifepristone-induced SSTR2 expression / differential expression of SSTR2: iPSC^ctrl organoids; for effect of pretreatment on Mifepristone-induced SSTR2 expression: GANT 5 uM, Keto 10 uM; for differential expression of SSTR2: drug alone (Mife 500 nM, GANT 5 uM, Keto 10 uM, Dexa 100 nM)
hPITO35 = details: for Dose response (cell viability): organoid 35, compared to Cabergoline
Method: (§1) Organoids were grown in Matrigel™ domes within 96-well round-bottom culture plates. Recombinant human SHH was removed from the pituitary organoid growth media, 24 hrs. prior to drug treatment. Organoids were treated with either vehicle (DMSO), cabergoline (Selleckchem S5842), ketoconazole (Selleckchem S1353), roscovitine (Selleckchem S1153), GANT61 (Stemcell Technologies 73692), pasireotide (TargetMol TP2207), mifeprostone (Selleckchem S2606), etomidate (Selleckchem S1329), mitotane (Selleckchem S1732), metyropane (Selleckchem S5416), or osilodrostat (Selleckchem S7456) at concentrations of 0, 1, 10, 100, 1000, and 10000 nM for 72 hours. Percent cell viability was measured using an MTS assay (Promega G3580). Absorbance was measured at 490 nm and normalized to the vehicle. Concentrations were plotted in a logarithmic scale, and a nonlinear dose-response curve regression was calculated using GraphPad Prism. An IC50 value for each drug treatment was determined based on the dose response curve using GraphPad Prism analysis software.

iPSC^ctrl organoids [3] = experiment: ACTH secretion ELISA of conditioned media; format: cell-based, human; details: for effect on ACTH secretion in response to Mifepristone: 100 nM with Mife 500 nM
Method: (§2) Concentration of secreted ACTH in conditioned media that was collected from organoid cultures was measured using the Human ACTH ELISA Kit (Novus Biologicals, NBP2-66401) according to the manufacturer's protocol. The enzyme-substrate reaction was measured spectrophotometrically (BioTek Gen5 Micro Plate Reader Version 3.11) at a wavelength of 450 nm and the ACTH concentration (pg/mL) was interpolated using a standard curve with a 4-parameter logistic regression analysis using GraphPad Prism (Version 9.2.0).

iPSC^USP48MV organoids [4] = experiment: ACTH secretion ELISA of conditioned media; format: cell-based, human; details: for effect on ACTH secretion in response to Mifepristone: 100 nM with Mife 500 nM
Method: as §2

iPSC^ctrl organoids [5] = experiment: Proliferation by EdU uptake; format: cell-based, human; details: 100 nM
Method: (§3) Organoids were immunostained using published protocols by our laboratory. Proliferation was measured by using 5-ethynyl-2'-deoxyuridine (EdU) incorporation according to the Manufacturer's protocol (Click-IT EdU Alexa Fluor 555 Imaging Kit, Thermo Fisher Scientific C10338). Costaining was performed by blocking fixed organoids with 2% donkey serum (Jackson Immuno Research, #017-000-121) diluted in 0.01% PBST for 1 hr. at room temperature. Organoids were then incubated overnight at 4° C. with primary antibodies followed by secondary antibodies and Hoechst (Thermo Fisher Scientific H1399, 1:1000 in 0.01% PBST) for 1 hr at room temperature. Human specific primary antibodies used included: rabbit anti-ACTH (Thermo Fisher Scientific 701293, 1:250), rabbit anti-Synaptophysin (Thermo Fisher Scientific PA5-27286, 1:100), […] (Thermo Fisher Scientific PA5-98650, 1:50), rabbit anti-LH (Thermo Fisher Scientific PA5-102674, 1:100), mouse anti-FSH (Thermo Fisher Scientific MIF2709, 1:100), mouse anti-PRL (Thermo Fisher Scientific CF500720, 1:100), Alexa Flour conjugated GH (NB500-364AF647, 1:100) and mouse anti-CAM5.2 (SIGMA […]-95, 1:250). The secondary antibodies used included Alexa Fluor 488 Donkey Anti Rabbit IgG (H+L) (Thermo Fisher Scientific A21206, 1:100) or Alexa Fluor 647 Donkey Anti Mouse IgG (H+L) (Thermo Fisher Scientific A31571, 1:100). Organoids were visualized and images acquired by confocal microscopy using the Nikon CrestV2 Spinning Disk. Fluorescence intensity and percentage of EdU positive cells of total cells, were calculated using Nikon Elements Software (Version 5.21.05).

iPSC^USP48MV organoids [6] = experiment: Proliferation by EdU uptake; format: cell-based, human; details: 100 nM
Method: as §3

[7] = monotherapy; cited from earlier work
hPITO33 = experiment: Drug dose response, MTS cell viability assay; format: cell-based, human
hPITO34 = system: hPITO34
Method: as §1

SSTR5 [8] = biological target: SSTR5 (Homo sapiens, UniProt P35346); details: cited from earlier work
Chain of SSTR5 (Homo sapiens, UniProt P35346) (P35346 whole entry): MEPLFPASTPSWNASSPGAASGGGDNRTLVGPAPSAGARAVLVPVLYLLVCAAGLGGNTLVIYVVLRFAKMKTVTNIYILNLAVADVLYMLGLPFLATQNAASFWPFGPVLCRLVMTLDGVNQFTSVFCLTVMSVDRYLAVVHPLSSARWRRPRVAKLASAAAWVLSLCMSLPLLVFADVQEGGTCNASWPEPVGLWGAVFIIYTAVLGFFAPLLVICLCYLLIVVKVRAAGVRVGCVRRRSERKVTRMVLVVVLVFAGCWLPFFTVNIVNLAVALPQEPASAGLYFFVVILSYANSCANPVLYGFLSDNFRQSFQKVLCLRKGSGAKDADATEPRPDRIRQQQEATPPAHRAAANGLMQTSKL

hPITO37 = experiment: Spectral flow cytometry (SSTR2, SSTR5, ACTH, zombie); format: cell-based, human; details: Pas 837.5 nM, Mife 2.85 nM
Method: The multicolor flow cytometry panel was designed using the Cytek®Full Spectrum Viewer online tool to calculate the similarity index. The organoids were harvested in cold SFDM media and centrifuged at 400×g for 5 minutes. Supernatant was discarded and organoids were dissociated to single cells using Accutase® (Thermo Fisher Scientific 00-4555-56). The enzymatic reaction was stopped using prewarmed DPBS and cells were then centrifuged at 400×g for 5 minutes and incubated with fluorochrome-conjugated/unconjugated primary surface or cytoplasmic antibodies at 4° C. for 30 minutes. Cells were then washed with Cell Staining Buffer (BioLegend #420-201) and incubated with secondary antibodies at 4° C. for 30 minutes. Cells were fixed using Cytofix/Cytoperm™ Fixation/Permeabilization Solution (BD Biosciences #554714) at 4° C. for 20 minutes, followed by washing with Fixation/Permeabilization wash buffer. Cells were then labeled with fluorochrome-conjugated/unconjugated intracellular primary antibodies at 4° C. for 30 minutes, washed and incubated with secondary antibodies at 4° C. for 30 minutes. Cells resuspended in cell staining buffer and fluorescence measured using the Cytek Aurora 5 Laser Spectral Flow Cytometer. An unstained cell sample was fixed and used as reference control. UltraComp eBeads™, Compensation Beads (Thermo Fisher Scientific #01-2222-42) were stained with the individual antibodies and used as single stain control for compensation and gating. Data was acquired using the Cytek™ Aurora and analyzed using Cytobank software (Beckman Coulter, Indianapolis, IN).

[9] = system: hPITOs generated from CD patients; experiment: High-throughput drug screen, MTS assay; format: cell-based, human; details: 1 uM, 72 hrs
Method: Patient adenoma-derived pituitary organoids were grown in 96-well plates and treated with 147 small molecules taken from the NCI AOD9 compound library for 72 hrs. (https://dtp.cancer.gov/organization/dscb/obtaining/available_plates.html). Drugs were diluted from 10 mM DMSO stock plates into 100 uM DMSO working stocks with a final concentration of 1 uM. All vehicle controls were treated with 0.1% DMSO. Organoid proliferation was measured using CellTiter 96® AQueous One Solution Cell Proliferation Assay kit (MTS, Promega, G3582) according to the manufacturer's instruction. Organoid death was calculated based on the absorbance readings at 490 nm, collected from the MTS assay relative to the vehicle controls. Drug screens were performed with biological replicates in same screen. Drugs were selected based on their ability to target key signaling pathways and clinical relevance to the treatment. Drug sensitivity is represented by cell viability and is significant at <0.5 suppressive effect of the drugs. The percent cell viability relative to the vehicle control was calculated. Correlation coefficient across each organoid were calculated using Pearson method to assess confidence in replication. Variance Component was detected for each drug across all organoids. A random effect model was run with a single random factor for each drug and estimated variance was calculated by rejecting the null hypothesis that there isn't variation among samples. The drug responses were grouped by variance factor large (vc>100), median (100>vc>50), and small (vc<50). Heatmap was used to display the differential responses in cell viability for the drugs.
Tumor recurrence can occur in as many as 30-50% of CD patients after successful surgical treatment. Unfortunately, bilateral adrenalectomy is the chosen surgical treatment for patients with persistent CD [35]. Bilateral adrenalectomy leads to the increased risk for development of Nelson's syndrome (progressive hyperpigmentation due to ACTH secretion and expansion of the residual pituitary tumor). Although the risk of developing Nelson's syndrome following adrenalectomy can be reduced by 50% with stereotactic radiotherapy, there is a need to develop medical therapies that directly target the pituitary adenoma. Thus, we established a high-throughput drug screening assay using patient-derived pituitary organoids. […] The replicates behaved consistently with the drug response with the correlation scores of >0.8 for these samples (FIG. 3a). We estimated the variance component for each drug across all organoids. […] The drug responses were grouped by variance factor large, median, and small. The larger the variance the more variable is the drug response across the organoids. […]

[10] = greater magnitude than Octreotide plus relacorilant

## CN(C)c1ccccc1CN1CCCN(Cc2ccccc2N(C)C)C1c1ccncc1 [GANT61]
[1]
  transcriptional regulation of POMC by Gli1 (ChIP): blocked
SSTR5 [2]
  effect on relacorilant stimulated SSTR5: inhibited
  effect of pretreatment on Mifepristone-induced SSTR5 expression: reduced
  differential expression of SSTR5: no effect
SSTR2
  effect on relacorilant stimulated SSTR2: inhibited
  effect of pretreatment on Mifepristone-induced SSTR2 expression: reduced
  differential expression of SSTR2: no effect

## CC(C)(C(=O)c1cccnc1)c1cccnc1 [Metyrapone]
hPITO35
  Dose response (cell viability): better responses than Cabergoline

## C[C@@H](O)[C@@H]1NC(=O)[C@H](CCCCN)NC(=O)[C@@H](Cc2c[nH]c3ccccc23)NC(=O)[C@H](Cc2ccccc2)NC(=O)[C@@H](NC(=O)[C@H](N)Cc2ccccc2)CSSC[C@@H](C(=O)N[C@H](CO)[C@@H](C)O)NC1=O [Octreotide]
iPSC^ctrl organoids [3]
  effect on ACTH secretion in response to Mifepristone: significantly reduced
iPSC^USP48MV organoids [4]
  effect on ACTH secretion in response to Mifepristone: significantly reduced
iPSC^ctrl organoids [5]
  effect of pretreatment on the proliferative response to Mife: inhibited
iPSC^USP48MV organoids [6]
  effect of pretreatment on the proliferative response to Mife: inhibited

## NCCCC[C@@H]1NC(=O)[C@@H](Cc2c[nH]c3ccccc23)NC(=O)[C@H](c2ccccc2)NC(=O)[C@@H]2C[C@@H](OC(=O)NCCN)CN2C(=O)[C@H](Cc2ccccc2)NC(=O)[C@H](Cc2ccc(OCc3ccccc3)cc2)NC1=O [Pasireotide] (cyclo([Hyp]([CO-Ethylenediamine])[Phg][dW]KY(Bn)F))
[7]
  patients with CD in whom cortisol is normalized: up to 42%
hPITO33; hPITO33, 72 hours, MTS cell viability
  pIC50: 5.92
hPITO35; hPITO35, 72 hours, MTS cell viability
  pIC50: 6.00
hPITO34; hPITO34, 72 hours, MTS cell viability
  pIC50: 8.21
iPSC^ctrl organoids [3]
  effect on ACTH secretion in response to Mifepristone: significantly reduced
iPSC^ctrl organoids [3]; [10]
  hormone (ACTH) secretion in combination with relacorilant: reduced hormone secretion
iPSC^USP48MV organoids [4]
  effect on ACTH secretion in response to Mifepristone: significantly reduced
iPSC^USP48MV organoids [4]; [10]
  hormone (ACTH) secretion in combination with relacorilant: reduced hormone secretion
SSTR5 [8]
  binding to SSTR5: high-affinity binding
hPITO37
  effect of pretreatment on Mife-increased number of ACTH expressing cells: not inhibited
iPSC^ctrl organoids [5]
  effect of pretreatment on the proliferative response to Mife: no effect
iPSC^USP48MV organoids [6]
  effect of pretreatment on the proliferative response to Mife: no effect

## C=CCN1C[C@H](C(=O)N(CCCN(C)C)C(=O)NCC)C[C@@H]2c3cccc4[nH]cc(c34)C[C@H]21 [cabergoline]
hPITO33; organoid 33, compared to Metyrapone and osilodrostat
  Dose response (cell viability): better response at lower dose
hPITO34; organoid 34, compared to Metyrapone and osilodrostat
  Dose response (cell viability): better response at lower dose
[9]; hPITO7, 10 and 25
  response of the adenoma cells within the organoids: ~0%
[9]; hPITO34 and hPITO35
  response of the adenoma cells within the organoids: 50%

## CC(=O)N1CCN(c2ccc(OCC3COC(Cn4ccnc4)(c4ccc(Cl)cc4Cl)O3)cc2)CC1 (centres unmarked) [ketoconazole]
SSTR5 [2]
  effect on relacorilant stimulated SSTR5: failed to block
  effect of pretreatment on Mifepristone-induced SSTR5 expression: no effect
  differential expression of SSTR5: no effect
SSTR2
  effect on relacorilant stimulated SSTR2: failed to block
  effect of pretreatment on Mifepristone-induced SSTR2 expression: no effect
  differential expression of SSTR2: no effect

## N#Cc1ccc([C@H]2CCc3cncn32)c(F)c1 [osilodrostat]
hPITO35
  Dose response (cell viability): better responses than Cabergoline
